According to patent US9327013B2, “Activity enhancer for anticancer agent” (TOKYO UNIVERSITY OF SCIENCE FOUNDATION, priority 2011, dated 2016):
Square brackets hold non-standard residues; d marks the D form. Ends that are not written are not given here. Peptide text beside a SMILES is read from it. NMeE = CN[C@@H](CCC(=O)O)C(=O)O

Assay: Stability of peptide in human serum (residual adhesion inhibitory activity after serum incubation)
Format: in vitro ADME
Settings: for stability of activity in human serum (in words): 500 μg/mL in 90% human serum, 0 to 56 hours, FIGS. 2A to 2D; for residual adhesion inhibitory activity after serum treatment: untreated FNIII14 = 100
Description: FNIII14 (500 μg/mL), each of the modified peptides (500 μg/mL), or a solution thereof was incubated in human serum (final concentration 90%; 0.01% of sodium azide as a preservative having been added thereto) under a condition of 37° C. and 5% CO2 for determined periods in a range of from 0 to 56 hours. Thereafter, each sample was diluted with DMEM (-) such that the peptide concentration in each well would be 25 μg/mL, and was inoculated onto a 96-well tissue culture plate together with A375SM cells prepared at 1.5×10^4/well, the 96-well tissue culture plate having been coated with 0.5 μg/mL of FN. After the plate was subjected to culturing for a certain time, […] of a PBS (-) solution containing 4% of formalin and 5% of sucrose was gently added to wells, and left to stand at room temperature for 1 hour, whereby the cells were immobilized. After the immobilization, the number of cells observed in predetermined four fields was counted and taken as the total number of cells. Non-adhered cells were removed by washing with a PBS (-) solution three times, and then the number of adhered cells in the same four fields as those mentioned above was counted under a microscope. Assuming that the adhesion inhibitory activity of FNIII14 that was not subjected to the treatment with serum was 100, the ratio of the residual adhesion inhibitory activity of FNIII14 or the modified peptide remaining after the serum treatment was evaluated in terms of percentage. In FIGS. 2A to 2C, white diamonds represent the results obtained using FNIII14, white squares represent the results obtained using Ace-FNIII14, white circles represent the results obtained using Met-FNIII14, and white triangles represent the results obtained using D-FNIII14. In FIG. 2D, black circles represent the activity of FNIII14, and black triangles represent the activity of D-Glu-FNIII14.

Molecule: CC[C@H](C)[C@H](NC(=O)[C@@H](NC(=O)[C@H](Cc1ccc(O)cc1)NC(=O)[C@@H](NC(=O)[C@@H](NC(=O)[C@H](Cc1ccc(O)cc1)NC(=O)[C@H](CCC(=O)O)NC(=O)[C@@H](NC(=O)CNC(=O)[C@@H]1CCCN1C(=O)[C@H](CCC(=O)O)NC(=O)[C@H](CC(C)C)NC(=O)CNC(=O)[C@@H](NC(=O)[C@@H](NC(=O)[C@@H](NC(=O)[C@H](C)NC(=O)[C@H](CCC(=O)O)N(C)C(=O)[C@@H](N)[C@@H](C)O)[C@@H](C)O)[C@@H](C)CC)[C@@H](C)O)[C@@H](C)O)[C@@H](C)O)[C@@H](C)CC)C(C)C)C(=O)N[C@@H](C)C(=O)N[C@@H](CC(C)C)C(=O)O [Met-FNIII14, [N-Me-Glu]^2-FNIII14] (H-T[NMeE]ATITGLEPGTEYTIYVIAL-OH; N-terminus and C-terminus assumed)
- stability of activity in human serum (in words) (37° C.): more stabilized than FNIII14

Molecule: CC[C@H](C)[C@H](NC(=O)[C@@H](NC(=O)[C@H](Cc1ccc(O)cc1)NC(=O)[C@@H](NC(=O)[C@@H](NC(=O)[C@H](Cc1ccc(O)cc1)NC(=O)[C@H](CCC(=O)O)NC(=O)[C@@H](NC(=O)CNC(=O)[C@@H]1CCCN1C(=O)[C@H](CCC(=O)O)NC(=O)[C@H](CC(C)C)NC(=O)CNC(=O)[C@@H](NC(=O)[C@@H](NC(=O)[C@@H](NC(=O)[C@H](C)NC(=O)[C@@H](CCC(=O)O)NC(=O)[C@@H](N)[C@@H](C)O)[C@@H](C)O)[C@@H](C)CC)[C@@H](C)O)[C@@H](C)O)[C@@H](C)O)[C@@H](C)CC)C(C)C)C(=O)N[C@@H](C)C(=O)N[C@@H](CC(C)C)C(=O)O [D-Glu-FNIII14, T-[D-Glu]-ATITGLEPGTEYTIYVIAL] (H-T[dE]ATITGLEPGTEYTIYVIAL-OH; N-terminus and C-terminus assumed)
- stability of activity in human serum (in words) (37° C.): did not exhibit a decrease of its activity in the serum
- increase of activity in the serum (90% human serum, 37° C.): ≥ 20%
- residual adhesion inhibitory activity after serum treatment (90% human serum, 37° C.): over 100%
- resistance to decomposition in human serum (aminopeptidase or the like in human serum): exhibited resistance to decomposition
- time at which decomposition tendency was exhibited in serum (long term stability over 60 hours, FIG. 2D): ≥ 50 h

Molecule: TEATITGLEPGTEYTIYVIAL [FNIII14, reference compound]
- stability of activity in human serum (in words) (37° C.): rapidly lost its activity within 2 hours
- residual adhesion inhibitory activity after serum treatment (after 20 hours in 90% human serum, 37° C., FIG. 2A): about 60%

Molecule: Ac-TEATITGLEPGTEYTIYVIAL (N-terminus assumed) [Ace-FNIII14]
- stability of activity in human serum (in words) (37° C.): more stabilized than FNIII14
